Patent US20220160779A1, “COMPOSITION FOR PROMOTING CARTILAGE TISSUE REGENERATION” (National University Corporation Tokyo Medical and Dental …, priority 2019, published 2022)

B1: IL10: recombinant IL10 protein (protein, UniProt P22301 19-178, looked up)
Interleukin-10: SPGQGTQSENSCTHFPGNLPNMLRDLRDAFSRVKTFFQMKDQLDNLLLKESLLEDFKGYLGCQALSEMIQFYLEEVMPQAENQDPDIKAHVNSLGENLKTLRLRLRRCHRFLPCENKSKAVEQVKNAFNKLQEKGIYKAMSEFDIFINYIEAYMTMKIRN
B2: FGF18: FGF18 given by intra-articular administration (protein, UniProt O76093 28-207, looked up)
Fibroblast growth factor 18: EENVDFRIHVENQTRARDDVSRKQLRLYQLYSRTSGKHIQVLGRRISARGEDGDKYAQLLVETDTFGSQVRIKGKETEFYLCMNRKGKLVGKPDGTSKECVFIEKVLENNYTALMSAKYSGWYVGFTKKGRPRKGPKTRENQQDVHFMKRYPKGQPELQKPFKYTTVTKRSRRIRPTHPA

Columns and labels:
[1] = tested on: rat model of total articular cartilage loss; assay: Full thickness articular cartilage defect model; format: in vivo; conditions: 4 weeks after the defect, FIG. 8
Procedure: Next, in order to verify the regeneration of damaged articular cartilage and the suppression of degenerative degeneration, a model of full thickness articular cartilage defect was prepared to examine the effects of rh Activin A administration. Specifically, a 1.4 mmφ total articular cartilage loss was prepared in the femoral intercondylar region using an airtome, and 180 ng of Activin A (rh Activin A) was injected intra-articularly 1 week later.

[2] = tested on: C57BL/6J mice; assay: Medial meniscus anterior 1/2 resection model; format: in vivo, mouse; conditions: intra-articular on day 7; 10 days after resection; FIG. 7A
Text: Twenty male C57BL/6J mice (8 weeks old, weight: about 25 g) were used for this study (5 mice in each group. ORIENTAL YEAST Co., Ltd. Tokyo, Japan). After anesthesia by isoflurane inhalation, a straight incision was made in the left anterior knee, and the anterior central side of the joint capsule was cut. The patellar tendon was then dislocated laterally to expose the anterior corner of the medial meniscus (see Hiyama K. et al, J Orthop Res., 2017, 35(9), pp. 1958 to 1965). The anterior corner of the meniscus was cut and dislocated anteriorly using forceps. The medial meniscus was cut perpendicularly at the medial collateral ligament, and the anterior portion of the medial meniscus was resected in a microscopic operation using a surgical microscope. The skin was closed in layers with non-absorbable sutures. Note that the right knee was subjected to sham surgery. In addition, the mice were kept under a 12-hour light/dark cycle with free movement, free feeding, and drinking water.
Recombinant human Activin A (42 ng/6 μL in PBS) and/or rh PDGF-AA (174 ng/6 μL in PBS) was injected intra-articularly on postoperative day 7 (see Hoshino T. et al., BMC Musculoskelet Disord., 2018, 19(1): 291). […]
Tissue samples were fixed in 4% paraformaldehyde for 3 to 4 days and subjected to decalcification in 20% ethylenediaminetetraacetic acid (EDTA) solution for 21 days. Then, they were embedded in paraffin wax. The specimens were then cut to a 5 μm thickness in the sagittal plane and stained with safranin O/Fast Green or hematoxylin/eosin (H&E) to histologically evaluate meniscus regeneration.
A modified Pauli's score system was used to histologically quantify meniscus regeneration (see Hiyama K. et al, J Orthop Res. 2017, 35(9), pp. 1958 to 1965). Histological evaluation was performed by two investigators in a blind manner.
Type I and II collagen immunostaining was performed as described in Tsuji K. et al, Cell Transplant., 2017, 26(6), pp. 1089 to 1102. That is, sections were subjected to deparaffinization with xylene (Wako Pure Chemical Industries, Tokyo, Japan), rehydrated stepwise with alcohol, and saturated with phosphate buffered saline (PBS). For type II collagen staining, the samples were pretreated with 50 mM Tris-HCl buffer (Wako Pure Chemical Industries) containing 0.4 mg/ml Proteinase K (Dako, Agilent Technologies, Santa Clara, Calif., USA) for 10 min. For type I collagen staining, no digestion with Proteinase K was performed.
Next, the cells were treated with methanol containing 0.3% hydrogen peroxide for 30 minutes to suppress the activity of endogenous peroxidase. As primary antibodies, anti-type I collagen antibody (1:200 dilution; Abcam cat. #ab34712, Cambridge, UK) or anti-type II collagen antibody (1:1000 dilution; Abcam […], Cambridge, UK) were added to the sections and incubated at 4° C. overnight. Then, the sections were rinsed with 0.1% PBS-Triton X-100 (MP Biomedicals Inc., Solon, Ohio, USA) and incubated with secondary antibodies diluted 1:200 [Biotinylated goat-derived anti-rabbit immunoglobulin G (IgG), Vector Laboratories, Burlingame, Calif., USA]. Then, the sections were rinsed, the signals were visualized with Vectastain ABC Reagent (Vector Laboratories), and diaminobenzidine staining (DAB, Vector Laboratories) was applied. In addition, the sections were contrast stained with hematoxylin (Muto Pure Chemicals, Tokyo, Japan).

[3] = tested on: synovial MSCs; assay: In-vitro differentiation assay of MSCs (cartilage, bone, adipocytes); format: cell-based, human; conditions: added to chondrogenic differentiation medium, pellet culture 2 weeks; FIG. 6C
Procedure: In-vitro differentiation assays were performed according to the method described in Colter D C. et al, Proc Natl Acad Sci USA, 2001, 98, pp. 7841 to 7845.
To form chondrogenic spheroids, 2.5×10^5 cells were transferred into 15 mL polypropylene tubes (BD Biosciences) and subjected to centrifugation at 450×g for 10 minutes. Then, the cell pellets were cultured in chondrogenic medium containing 1000 ng/mL rhBMP-2 (Infuse Bone Graft; Medtronic, TN, USA), 10 ng/mL […], and 100 nM dexamethasone (Sigma-Aldrich, MO, USA) for 14 days.
For calcification, cells were cultured in normal growth medium supplemented with 1 nM dexamethasone, 20 mM β-glycerophosphate, and 50 μg/mL ascorbic acid-2-phosphate (Sigma-Aldrich) for 21 days. Calcified nodule formation was visualized by alizarin red staining (Sigma-Aldrich).
For adipogenesis, the cells were cultured for 21 days in MEM-alpha supplemented with 10% FBS, 100 nM dexamethasone (Sigma-Aldrich), 0.5 mM IBMX (isobutyl-1-methylxanthine; Sigma-Aldrich), and 50 μM indomethacin (Wako, Tokyo, Japan). The adipogenic cultures were immobilized and stained with Oil Red O solution (Sigma-Aldrich).

[4] = tested on: synovial MSCs; assay: Proliferation assay of synovial MSCs with recombinant protein (MTT assay); format: cell-based, human; conditions: for proliferation activation of MSCs (MTT assay): recombinant protein added to normal growth medium (10% FBS) up to 100 times the ED50, FIG. 3C; for effect of inhibitor on pro-proliferative activity of Activin A / cell count (MTT assay): 0.5% FBS + rh Activin A + inhibitor, FIG. 5E
Procedure: Primary human synovial cells were isolated from the synovial tissues obtained from patients who underwent total knee arthroplasty (TKA), as described in Sekiya I. et al, Clin Orthop Relat Res, 2015, 473(7), pp. 2316 to 2326. That is, first, 0.5 to 1 mg of synovium obtained by incising the suprapatellar bursa was subjected to collagenase D treatment (Sigma, MO, USA, 3 hours at 37° C.) to disperse nucleated cells. Debris was removed by passing the cell dispersion through a 70 μm nylon mesh. Nucleated cells were seeded in a 15 cm dish at 5.7×10^2 cells/cm^2 and maintained and cultured in MEM-alpha medium supplemented with 10% FBS and antibiotics (Gibco, MA, USA) for 14 days. The cells were then separated from the dish in TripLE solution (Gibco) and seeded twice more in a new dish to obtain a sufficient cell count to be used in the experiments. Note that in all experiments, cells within 6 passages were used.
To evaluate the pro-proliferative activity of recombinant proteins (IL6, IL8, IL10, and Activin A), MTT assays were performed (see FIGS. 3C and 5C-E). Synovial MSCs were seeded to 1×10^3 cells/well in 96-well plates and cultured in 0.2 mL of normal growth medium 1 day before being subjected to recombinant protein treatment. On the following day, the medium was replaced with a fresh one (normal growth medium or medium with a reduced FBS concentration of 0.5% and recombinant protein added (10 times the concentration of ED50 or 100 times the concentration of ED50)). MTT assays were performed at days 0, 1, 3, 5, and 7 according to the method described in Denizot F. et al., J Immunol Methods, 1986, 89(2), pp. 271 to 277.
In addition, the present inventors tried to clarify the molecular mechanism of MSC proliferative activity by Activin A. It has been reported that the ERK and PI3K signal transduction pathways are activated for MSC proliferation (see Uomizu, M. et al, J Med Dent Sci., 2018, vol. 65, pp. 73 to 82). With the above in mind, Activin A (rh Activin A) was applied to synovial MSCs in the presence of PI3K-PKB/Akt and Erk1/Erk2, a specific inhibitor for each of these signal transduction pathways, and the cell count was measured by MTT assay.

[5] = tested on: rat meniscus damage model; conditions: intra-articular administration; cited from earlier work

| Molecule | proliferation activation of MSCs (MTT assay) [4] | effect of inhibitor on pro-proliferative activity of Activin A / cell count (MTT assay) [4] | other results |
| --- | --- | --- | --- |
| PDGF |  |  | chondrogenic differentiation of the formed tissue [1]: no significant promotion effect; formation of fibrocartilage-like tissue in the articular cartilage defect site ([1]; intra-articular 1 week after defect (rh Activin A 180 ng/knee, rrPDGF-AA 900 ng/knee), vs PBS): promote the formation of fibrocartilage-like tissue; vascular invasion in the regenerated region [2]: observed; formation of chondrocyte aggregates (wet weight) [3]: effect of promoting the formation of chondrocyte aggregates |
| IL6: recombinant human IL6 protein | no proliferation activation of MSCs was observed |  |  |
| O=c1[nH]c2ccccc2n1C1CCN(Cc2ccc(-c3nc4cc5[nH]cnc5cc4nc3-c3ccccc3)cc2)CC1 [Akt1/2, reference compound] |  | completely eliminated |  |
| IL8: recombinant human IL8 protein | no proliferation activation of MSCs was observed |  |  |
| COc1cccc(-c2cc(=O)c3ccccc3o2)c1N [PD98059, reference compound] |  | further reduced |  |
| COc1ccc(-c2ccc3c(N4CCOCC4)nc(N4C[C@@H](C)O[C@@H](C)C4)nc3n2)cc1CO [KU0063794, reference compound] |  | completely eliminated |  |
| B1 | no proliferation activation of MSCs was observed |  |  |
| B2 |  |  | articular cartilage degeneration and cartilage thickness at the tibial plateau [5]: suppress articular cartilage degeneration and increase cartilage thickness at the tibial plateau |
